What all share (assay type): in vivo, human
A short description of assay [1]: Sensory evaluation of tomato soups with and without the compound. To be noted: compound added at 2 g/L; 6 g tomato base powder in 500 mL hot water. On the procedure:
1-Deoxy-D-fructosyl-N-β-alanyl-L-histidine or alternatively 1-deoxy-D-fructosyl-N-β-alanyl-N-methyl-L-histidine was added at 2 g/L to the soups.

Assay [2] is described as follows: Sensory evaluation of chicken soups with and without the compound. Particulars: compound added at 2 g/L; chicken base powder 6 g and 1 g monosodium glutamate in 500 mL hot water; 12 panelists. As for the experimental part: Chicken soups were prepared by dissolving 6 g chicken base powder (detailed recipe shown in Table 3) and 1 g monosodium glutamate in 500 mL hot water. 1-Deoxy-D-fructosyl-N-β-alanyl-L-histidine or alternatively 1-deoxy-D-fructosyl-N-β-alanyl-N-methyl-L-histidine was added at 2 g/L.
The sensory evaluation was carried out by 12 panelists, previously screened for their sensory abilities. The panelists were asked to taste a set of 2 chicken soups, one containing no 1-deoxy-D-fructosyl-N-β-alanyl-L-histidine and one containing 1-deoxy-D-fructosyl-N-β-alanyl-L-histidine (2 g/L). If sensory differences were observed, the panelists were asked to describe them.
The same sensory evaluation was carried out with the chicken soup samples with and without containing 1-deoxy-D-fructosyl-N-β-alanyl-N-methyl-L-histidine at 2 g/L broth.

Assay [3] is described as follows: Taste threshold concentration in model broth, three-alternative test by sensory panel. To be noted: thick-sour sensation and white-meaty oral impression, value in brackets. As for the experimental part:
The sensory tests were performed in a sensory panel room at 20-25° C. To avoid a retro-nasal aroma or taste impression, nose clips were used. The sensory panel consisted of 8 to 14 trained persons. The panel was trained to evaluate the taste of aqueous solutions (1 mL each) of the following standard taste compounds by using a triangle test: saccharose (50 mmol/L) and L-alanine (15 mmol/L), respectively, for sweet taste; lactic acid (20 mmol/L) for sour taste; NaCl (12 mmol/L) for salty taste; caffeine (1 mmol/L) and quinine hydrochloride (0.05 mmol/L), respectively, for bitter taste; sodium glutamate (8 mmol/L, pH 5.7) for umami taste; and tannin (0.05%) for astringency. The “white meaty” oral sensations was assessed in a model broth solution prepared from monosodium glutamate monohydrate (1.9 g/L), yeast extract (2.1 g/L), maltodextrin (6.375 g/L) and sodium chloride (2.9 g/L) in bottled water (pH 5.9).
The taste threshold concentration of β-alanyl-L-histidine was determined in the model broth using a three-alternative test with two blanks and one sample in ascending concentrations of β-alanyl-L-histidine.
This taste threshold value is considerably lower than the 22′700 μmol/L (5.3 mg/g) threshold level determined for the corresponding β-alanyl-L-histidine under the same experimental model system (see Example 5). […]

As to `Cn1cncc1C[C@H](NC(=O)CCNCC(=O)[C@@H](O)[C@H](O)[C@H](O)CO)C(=O)O` [1-deoxy-D-fructosyl-N-β-alanyl-N-methyl-L-histidine], in assay [1], the “sensory panel conclusion on flavour of tomato soup” value is on record as “increased significantly the savory, spicy notes”. In addition, the “sensory panel conclusion on flavour of chicken soup” value in assay [2] was “significantly increased the boiled chicken and meaty flavours”.
In assay [3], `NCCC(=O)N[C@@H](Cc1c[nH]cn1)C(=O)O` [β-alanyl-L-histidine] showed a taste threshold concentration of 5.3 mg/g.

(Values after patent US10781232B2, “Sugar-dipeptide conjugates as flavor molecules” (NESTEC S.A., priority 2015, dated 2020).)
